Tested on: Normal human dermal fibroblasts
Assay: UV radiation test in vitro, UV-B
Format: cell-based
Details: fibroblasts exposed to test substance 48 hours before UV irradiation; UV dose inducing 50% of cell death
Description: The fractionated low-erucic rapeseed oil of Example 1, the canola oil fraction, was tested in vitro for its ability to decrease the damage to cells exposed to free radicals generated by exposure to UV radiation. Normal human dermal fibroblasts were exposed to the test substance at different concentrations 48 hours before UV irradiation. DL-α-tocopheryl acetate was used as a positive control in the study. The UV dose inducing 50% of cell death was determined after the treatment by exposing the cell cultures to UV-A and UV-B radiation at different intensities.

CC(=O)Oc1c(C)c(C)c2c(c1C)CC[C@@](C)(CCC[C@H](C)CCC[C@H](C)CCCC(C)C)O2 (racemic) [DL-α-tocopheryl acetate]
protection against UV-B radiation: neither the fractionated rapeseed oil of Example 1 or the DL-α-tocopheryl acetate gave any protection

Source: patent publication US6552208B1, “Fractionation process” (Karlshamns AB, priority 1998, dated 2003)
